Data: paper PMC8698333 (Biomedicines, 2021)
No end group written: not given here.

How the values were obtained:
hKOR with Gα3 subunit = target: T1, hKOR with Gα3 subunit (Homo sapiens, UniProt P41145); assay: TRUPATH (BRET) G-protein dissociation, Gα3 subunit; format: cell-based; conditions: mean ± SEM
T1 construct: alpha7 nicotinic receptor signal peptide (N); expressed in transfected cells; host or cells: HEK293, transient

[1] = target: T2, hKOR (β-arrestin recruitment) (Homo sapiens, UniProt P41145); assay: PRESTO-Tango β-arrestin recruitment assay; format: cell-based; conditions: SEM
T2 construct: tTA (Tango cassette); expressed in transfected cells; host or cells: HEK293, transient
T2 sequence (P41145 whole entry): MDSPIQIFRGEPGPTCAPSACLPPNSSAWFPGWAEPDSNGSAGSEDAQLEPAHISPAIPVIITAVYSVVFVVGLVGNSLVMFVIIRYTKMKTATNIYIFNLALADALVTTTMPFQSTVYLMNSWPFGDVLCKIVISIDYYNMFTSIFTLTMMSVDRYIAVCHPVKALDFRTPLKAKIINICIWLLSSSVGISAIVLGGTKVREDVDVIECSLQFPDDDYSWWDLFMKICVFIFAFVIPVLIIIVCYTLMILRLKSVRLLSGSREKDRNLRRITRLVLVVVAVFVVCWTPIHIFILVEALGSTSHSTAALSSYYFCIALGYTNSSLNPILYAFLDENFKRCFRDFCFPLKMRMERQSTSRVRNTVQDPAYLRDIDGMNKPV
T2 sequence (P32121 whole entry partner): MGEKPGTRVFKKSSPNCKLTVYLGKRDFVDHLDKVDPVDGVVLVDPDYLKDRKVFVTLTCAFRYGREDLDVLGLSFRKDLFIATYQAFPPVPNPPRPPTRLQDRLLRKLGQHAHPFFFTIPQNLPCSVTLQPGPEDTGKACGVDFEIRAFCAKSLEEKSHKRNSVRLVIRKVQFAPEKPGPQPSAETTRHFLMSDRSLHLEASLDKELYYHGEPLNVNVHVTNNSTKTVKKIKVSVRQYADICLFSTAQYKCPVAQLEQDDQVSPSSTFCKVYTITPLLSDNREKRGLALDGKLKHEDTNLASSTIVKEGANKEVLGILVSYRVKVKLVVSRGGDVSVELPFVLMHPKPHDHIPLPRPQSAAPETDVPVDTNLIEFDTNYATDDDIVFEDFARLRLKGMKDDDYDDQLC

[2] = target: T3, human KOR receptors (hKOR) (Homo sapiens, UniProt P41145); assay: [35S]GTPγS functional assay on hKOR-CHO cell membranes; format: biochemical; conditions: SEM
T3 construct: expressed in transfected cells
T3 sequence (P41145 whole entry): as the sequence (P41145 whole entry) above
Experimental: CHO cells stably transfected with human KOR receptors (hKOR-CHO) were courtesy of Prof. Liu-Chen (Temple University, Philadelphia, PA, USA). Cells were grown in Gibco™ Dulbecco’s Minimal Essential Medium (DMEM) supplemented with 10% FBS, Glutamax (100 μg/mL), penicillin/ streptomycin (100 μg/mL) and geneticin (G418, 400 μg/mL). […] Cell cultures were maintained in a Heracell™ 150i CO2 incubator at 37 °C and 5.0% CO2.
Functional assays were conducted on hKOR-CHO cell membranes. Membranes were prepared in 50 mM Tris-HCl buffer pH 7.7. Cells were harvested by scraping the plates with a rubber policeman and were then centrifuged at 500× g for 10 min. The cell pellet was resuspended in Tris-HCl, homogenized with a Dounce homogenizer and centrifuged at 27,000× g for 15 min. […] The protein concentration of the homogenate was determined by Biuret reaction (RotiQuant Universal, Carl Roth) and stored at −70 °C until use.
To perform the GTPγS assay, membrane homogenates (10 μg/reaction tube) were diluted in HEPES buffer (20 mM) together with 10 μM GDP and 0.05 nM [^35S]GTPγS (Perkin Elmer, MA, USA). […] Non-specific binding was determined using 10 μM unlabeled GTPγS (Sigma-Aldrich, Vienna, Austria). Samples were filtered over glass fiber filters (GF/B Whatman) and the bound radioactivity was measured by liquid scintillation counting as counts per minute (CPM).

hKOR with GαZ subunit = target: T4, hKOR with GαZ subunit (Homo sapiens, UniProt P41145); assay: TRUPATH (BRET) G-protein dissociation, GαZ subunit; format: cell-based; conditions: SEM
T4 construct: alpha7 nicotinic receptor signal peptide (N); expressed in transfected cells; host or cells: HEK293, transient
T4 sequence (P41145 whole entry): as above
T4 sequence (P19086 whole entry partner): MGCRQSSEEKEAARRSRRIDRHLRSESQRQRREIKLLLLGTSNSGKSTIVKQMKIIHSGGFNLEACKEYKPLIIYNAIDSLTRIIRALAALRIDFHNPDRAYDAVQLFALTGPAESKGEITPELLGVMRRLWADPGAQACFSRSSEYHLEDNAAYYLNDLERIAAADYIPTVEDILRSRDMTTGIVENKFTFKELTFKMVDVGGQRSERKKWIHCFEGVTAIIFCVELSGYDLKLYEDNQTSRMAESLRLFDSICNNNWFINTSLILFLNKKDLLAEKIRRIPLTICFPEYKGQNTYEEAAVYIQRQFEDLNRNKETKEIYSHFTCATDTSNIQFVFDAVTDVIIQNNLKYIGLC
T4 sequence (P16520 whole entry partner): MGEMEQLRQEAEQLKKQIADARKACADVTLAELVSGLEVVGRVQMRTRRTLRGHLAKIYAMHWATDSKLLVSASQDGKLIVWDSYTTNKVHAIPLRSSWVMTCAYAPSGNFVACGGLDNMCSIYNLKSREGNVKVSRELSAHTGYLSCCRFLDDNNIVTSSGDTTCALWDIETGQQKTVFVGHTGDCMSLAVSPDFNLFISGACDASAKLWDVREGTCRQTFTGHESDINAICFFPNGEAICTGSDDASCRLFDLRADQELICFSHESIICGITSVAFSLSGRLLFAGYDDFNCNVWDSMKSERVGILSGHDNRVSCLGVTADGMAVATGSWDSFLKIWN
T4 sequence (P63211 1-71 partner limits assumed): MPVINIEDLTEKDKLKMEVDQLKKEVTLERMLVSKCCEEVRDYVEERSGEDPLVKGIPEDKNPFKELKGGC

hKOR with Gα2 subunit = target: T5, hKOR with Gα2 subunit (Homo sapiens, UniProt P41145); assay: TRUPATH (BRET) G-protein dissociation, Gα2 subunit; format: cell-based; conditions: SEM
T5 construct: alpha7 nicotinic receptor signal peptide (N); expressed in transfected cells; host or cells: HEK293, transient
T5 sequence (P41145 whole entry): as the sequence (P41145 whole entry) above
T5 sequence (P04899 whole entry partner): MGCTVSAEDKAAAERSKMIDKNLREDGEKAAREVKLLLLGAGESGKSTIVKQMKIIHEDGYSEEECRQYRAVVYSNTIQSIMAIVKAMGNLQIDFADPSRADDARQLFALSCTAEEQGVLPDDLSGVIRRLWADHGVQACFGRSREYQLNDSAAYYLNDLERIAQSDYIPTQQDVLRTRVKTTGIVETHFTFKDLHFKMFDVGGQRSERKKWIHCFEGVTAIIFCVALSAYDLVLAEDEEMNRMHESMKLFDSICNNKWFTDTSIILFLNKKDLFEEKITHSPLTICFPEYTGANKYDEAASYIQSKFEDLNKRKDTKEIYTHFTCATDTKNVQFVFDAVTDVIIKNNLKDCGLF
T5 sequence (P16520 whole entry partner): as the sequence (P16520 whole entry partner) above
T5 sequence (Q9UK08 1-67 partner limits assumed): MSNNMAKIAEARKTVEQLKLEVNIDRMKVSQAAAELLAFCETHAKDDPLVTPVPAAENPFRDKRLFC

hKOR with GαoA subunit = hKOR with GαoA subunit (Homo sapiens, UniProt P41145); assay: cell-based; conditions: SEM
hKOR with GαoA subunit, sequence (P16520 whole entry): as the sequence (P16520 whole entry partner) above
hKOR with GαoA subunit, sequence (P41145 whole entry): as the sequence (P41145 whole entry) above
hKOR with GαoA subunit, sequence (P09471 whole entry, further chain): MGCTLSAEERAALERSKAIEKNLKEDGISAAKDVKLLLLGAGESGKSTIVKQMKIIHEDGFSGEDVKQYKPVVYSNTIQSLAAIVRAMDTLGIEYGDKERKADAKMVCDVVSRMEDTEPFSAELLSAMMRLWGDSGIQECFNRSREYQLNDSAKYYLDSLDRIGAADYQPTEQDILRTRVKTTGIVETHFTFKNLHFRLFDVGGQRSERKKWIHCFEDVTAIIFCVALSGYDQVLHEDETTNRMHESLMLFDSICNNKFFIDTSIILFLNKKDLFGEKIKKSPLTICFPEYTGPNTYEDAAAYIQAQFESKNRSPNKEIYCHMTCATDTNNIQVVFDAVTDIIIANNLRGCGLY
hKOR with GαoA subunit, sequence (Q9UK08 1-67, further chain): as the sequence (Q9UK08 1-67 partner limits assumed) above

hKOR with GαoB subunit = target: T6, hKOR with GαoB subunit (Homo sapiens, UniProt P41145); assay: TRUPATH (BRET) G-protein dissociation, GαoB subunit; format: cell-based; conditions: SEM
T6 construct: alpha7 nicotinic receptor signal peptide (N); expressed in transfected cells; host or cells: HEK293, transient
T6 sequence (P41145 whole entry): as the sequence (P41145 whole entry) above
T6 sequence (P09471 1-354 isoform P09471-2 partner): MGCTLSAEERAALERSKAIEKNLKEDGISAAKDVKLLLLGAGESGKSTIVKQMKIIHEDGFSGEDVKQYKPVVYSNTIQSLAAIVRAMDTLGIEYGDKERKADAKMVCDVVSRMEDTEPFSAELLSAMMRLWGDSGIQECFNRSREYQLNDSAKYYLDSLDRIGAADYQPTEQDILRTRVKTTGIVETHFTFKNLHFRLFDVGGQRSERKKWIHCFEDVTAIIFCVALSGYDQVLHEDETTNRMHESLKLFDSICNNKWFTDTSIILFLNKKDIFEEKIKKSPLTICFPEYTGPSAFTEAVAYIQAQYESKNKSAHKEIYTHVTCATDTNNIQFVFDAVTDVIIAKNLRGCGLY
T6 sequence (P16520 whole entry partner): as the sequence (P16520 whole entry partner) above
T6 sequence (Q9UK08 1-67 partner limits assumed): as the sequence (Q9UK08 1-67 partner limits assumed) above

hKOR with Gα1 subunit = target: T7, hKOR with Gα1 subunit (Homo sapiens, UniProt P41145); assay: TRUPATH (BRET) G-protein dissociation, Gα1 subunit; format: cell-based; conditions: SEM
T7 construct: alpha7 nicotinic receptor signal peptide (N); expressed in transfected cells; host or cells: HEK293, transient
T7 sequence (P16520 whole entry): as the sequence (P16520 whole entry partner) above
T7 sequence (P63096 whole entry, further chain): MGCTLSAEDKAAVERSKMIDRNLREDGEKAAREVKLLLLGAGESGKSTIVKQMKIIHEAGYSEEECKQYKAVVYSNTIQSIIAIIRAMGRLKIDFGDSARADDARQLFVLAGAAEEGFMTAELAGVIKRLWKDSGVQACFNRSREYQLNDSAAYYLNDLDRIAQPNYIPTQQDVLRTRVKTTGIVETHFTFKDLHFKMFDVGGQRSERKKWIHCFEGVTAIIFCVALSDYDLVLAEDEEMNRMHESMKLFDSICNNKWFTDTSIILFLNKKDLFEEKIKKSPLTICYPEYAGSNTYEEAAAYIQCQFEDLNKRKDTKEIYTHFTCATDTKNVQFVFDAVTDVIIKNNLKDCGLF
T7 sequence (P41145 whole entry): as the sequence (P41145 whole entry) above
T7 sequence (O14610 1-66, further chain): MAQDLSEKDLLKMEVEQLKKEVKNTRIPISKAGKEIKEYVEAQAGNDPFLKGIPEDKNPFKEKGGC

[3] = EC50, TRUPATH α3 (#, same cell batch), HEK293 with hKOR and Gα3, signal bias series marked #, performed on the same cell batch, n = 9

T1 sequence (P41145 whole entry): as the sequence (P41145 whole entry) above
T1 sequence (P08754 whole entry partner): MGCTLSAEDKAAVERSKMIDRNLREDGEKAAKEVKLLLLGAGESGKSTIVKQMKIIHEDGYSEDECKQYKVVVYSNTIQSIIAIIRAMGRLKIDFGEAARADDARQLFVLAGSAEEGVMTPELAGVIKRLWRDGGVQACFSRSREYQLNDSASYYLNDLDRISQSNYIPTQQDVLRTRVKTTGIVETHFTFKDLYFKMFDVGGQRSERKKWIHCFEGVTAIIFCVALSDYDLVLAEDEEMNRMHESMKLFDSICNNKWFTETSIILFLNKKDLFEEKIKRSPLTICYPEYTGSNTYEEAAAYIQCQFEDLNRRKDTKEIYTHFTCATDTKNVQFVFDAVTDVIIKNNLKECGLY
T1 sequence (P16520 whole entry partner): as the sequence (P16520 whole entry partner) above
T1 sequence (O14610 1-66 partner limits assumed): as the sequence (O14610 1-66, further chain) above

In the case of YGGFLRRICPKLKWDNQ [DynA_R9C], the EC50 (hKOR with Gα3 subunit; [3]) is reported as 24 ± 9 nM and the EC50 [1] is reported as 88 ± 32 nM.

YGGFLWRIRPKLKWDNQ [DynA_R6W] gave an EC50 [2] of 105 ± 23 nM, an EC50 (hKOR with GαZ subunit) of 27 ± 9 nM and an EC50 (hKOR with Gα2 subunit) of 78 ± 42 nM. It also gave an EC50 (hKOR with GαoA subunit) of 133 ± 80 nM, an EC50 (hKOR with Gα3 subunit; [3]) of 133 ± 75 nM and an EC50 (hKOR with Gα3 subunit; EC50, TRUPATH α3, HEK293 transiently transfected with hKOR and Gα3, 30 min, n = 6 (transducerome series)) of 161 ± 51 nM. It also gave an EC50 (hKOR with GαoB subunit) of 62 ± 15 nM, an EC50 (hKOR with Gα1 subunit) of 211 ± 36 nM and an EC50 [1] of 670 ± 215 nM.

With YGGFSRRIRPKLKWDNQ [DynA_L5S] the EC50 (hKOR with Gα3 subunit; [3]) was 78 ± 37 nM and the EC50 [1] was 236 ± 65 nM.
